Data as given in patent publication US20240270771A1, “Compound containing phosphate group, pharmaceutical composition containing same, preparation method therefor and use thereof” (SHANGHAI RAISING PHARMACEUTICAL CO., LTD., priority 2021, published 2024).

Assays:
[1] = system: scopolamine-induced acute memory dysfunction model; experiment: Jumping stand test, scopolamine-induced acute memory dysfunction model; format: in vivo, ICR mice; conditions: scopolamine 2 mg/kg i.p., compound 200 mg/kg gavage once a day 3 weeks; for Number of errors: model group 1.7 ± 0.5; for Latency period: model group 68.5 ± 80.0
Method: The mice employed in the present test were purchased from Xipuer-BIKAI Laboratory Animal Co., Ltd., and they were SPF grade ICR mice, 3-4 weeks old, weighing 16-18 g.
Scopolamine hydrobromide trihydrate was purchased from aladdin, Product No.: S107418; Purity: 98%.
Test article preparation: 100 mg of the compound to be tested was weighed and added to 10 mL of 0.7% CMC-Na to prepare a 10 mg/mL suspension for use.
The laboratory mice were randomly divided into groups (9 or 10 mice per group). The mice in each group were administrated at a dosage of 0.2 mL/10 g body weight by oral gavage once a day for three weeks.
The laboratory animals were administered by gavage for 3 consecutive weeks according to the above administration dosage/specification. Training was started on the last day of administration, and the test was conducted 24 hours later.
The laboratory animals were administered by gavage for 3 weeks, and scopolamine (mouse: 2 mg/kg) was injected intraperitoneally 0.5 hour after the last dose. The animals were trained with YLS-3 TB jumping stand detector and tested for memory acquisition function after 24 hours. The latency period (the time from the start of counting to the first time of jumping off the stand) and the number of errors (the number of electric shock) were recorded.
The YLS-3 TB jumping stand detector were divided into five compartments by transparent boards. The bottom of the compartment was covered with a copper grid and applied with a voltage of 50 V A rubber pad stand with a height of 3.5 cm and a diameter of 3.5 cm was placed in each compartment to serve as a safe area for mice to avoid electric shock. Training of laboratory mice before the formal test: the laboratory mice were placed in the small compartment with a stand to get familiar with the environment for 5 min (the five compartments were connected), and then electrified for stimulation (all the laboratory mice were on the grid at this time), at the voltage of 50 V and current of 1.00 mA. Mice have the habit of jumping from a high place. If they jump, they will be shocked to produce memory. The current was applied for 5 min, which served as the training process.
Testing: the animals were put on the stand in the jumping compartment one by one. The time interval for putting each animal was 5 s. After the first animal was put on the stand, the electricity was applied immediately. The electricity was applied for 6 min. At the end of applying electricity, data were printed, and the latency period (the time from the start of counting to the first time of jumping off the stand) and the number of errors (the number of electric shock during the testing period) were recorded. […]

[2] = Pharmacokinetic study, brain distribution test (TM in brain and whole blood); format: in vivo, SD rats; conditions: single gavage to rats
Method: (§1) The SD rats used in this test were purchased from Zhejiang Charles rive Laboratory Animal Co., Ltd. Both male and female rats of SPF grade weighting about 250 g were used.
(§2) Preparation of the test article: a proper amount of test article was weighed and ground as fine powder in a mortar. A certain amount of the vehicle was added to a proper container, and then the ground test article was added to the container under magnetic stirring. The mixture was stirred until the appearance is uniform.
The male SD rats were divided into three groups (16 rats in each group) (4 animals were sacrificed at 4 time points). […] The animals were sacrificed at 5 min, 1 h, 3 h, and 9 h after the administration. The brain was taken out immediately after sacrifice, rinsed with ice-cold water and rinsed. 50 mg of the brain tissue was weighed, added to 0.45 mL of 100 mM dipotassium hydrogen phosphate buffer (pH=5.0) and homogenized. Blood samples were taken simultaneously and anticoagulated with EDTA. After collection, blood samples were placed on ice. 150 μL of whole blood was taken and 150 μL of 5.2% perchloric acid was added to determine TM. Another 4 animals were gavage administered with normal saline for the determination of endogenous TM concentration. All samples were frozen and stored in a −80° C. refrigerator.
(§3) The concentrations of TM and TDP in the samples were determined by HPLC-FLD.
(§4) The non-compartment model of the DAS software was used to calculate the pharmacokinetic parameters of TM and TDP in blood of rats after administration. The concentration of TM in the brain tissue after the drug administration in rats was measured, and the mean value and standard deviation were calculated. The area under the drug-time curve AUC was calculated using the trapezoidal method.

[3] = Acute toxicity test, gavage to mice; format: in vivo, Kunming strain mice; conditions: male mice; for Body weight before administration (mean ± standard deviation): baseline before gavage 2000 mg/kg once a day; for Body weight on Day 7 (mean ± standard deviation) / Body weight on Day 14 (mean ± standard deviation): gavage 2000 mg/kg once a day
Method: CMC-Na (sodium carboxymethylcellulose) was purchased from Shanghai Sinopharm Chemical Reagent Co., Ltd.
The test animals were Kunming strain mice, 18-20 g, provided by Beijing Keao Xieli Feed Co., Ltd.
• 1) Preparation of 0.7% CMC-Na: 0.7 g CMC-Na was added with distilled water to prepare a 0.7 g/100 mL solution. • 2) The compound to be tested was added to 0.7% CMC-Na to prepare a 100 mg/mL suspension. • 3) Each test group comprised 10 mice, all of which were male. Each mouse was orally administered with the test compound (2000 mg/kg) by gavage, once a day, for a cumulative period of 15 days. […] The body weights were recorded on the day of administration, days 7 and 14. 2.3. Test results

[4] = Pharmacokinetic study, absorption test (TM and TDP in whole blood); format: in vivo, SD rats; conditions: same drug dose, single gavage, rats
Method: as §1, §2
The SD rats were divided into 3 groups (6 rats in each group, half male and half female). […] Blood was collected (about 200 µL/time) before drug administration (0 min) and 3 min, 8 min, 15 min, 30 min, 1 h, 2 h, 3 h, 5 h, 8 h, 12 h, 24 h and 48 h after drug administration. Blood was anticoagulated with EDTA and placed on ice after collection. […]
as §3, §4

SMILES	Number of errors [1]	Latency period [1] [s]	AUC of TM in the brain, times of that of BTMP administration group [2] [times]	AUC of TM in the brain, times of that of the Comparative compound 2 administration group [2] [times]	AUC of TM in the brain ([2]; trapezoidal method, calculated after deducting the concentration at time zero) [ng·h/g]	Body weight before administration (mean ± standard deviation) [3] [g]	Body weight on Day 7 (mean ± standard deviation) [3] [g]	Body weight on Day 14 (mean ± standard deviation) [3] [g]	TM and TDP exposures compared with BTMP and Comparative compound 2 administration groups [4]	t1/2 of TDP compared with BTMP or Comparative compound 2 administration group [4]
CCCC(CCC)C(=O)S/C(CCOP(=O)(O)O)=C(/C)N(C=O)Cc1cnc(C)nc1N [Compound 1, (Z)—S-(2-(N-((4-amino-2-methylpyrimidin-5-yl)methyl)formamido)-5-(phosphonooxy)pent-2-en-3-yl) 2-propylpentanethioate]	0.8 ± 0.8	180.0 ± 105.9	1.56	2.08	1156.6	31.4 ± 1.1	35.5 ± 1.0	36.7 ± 1.2	higher	significantly higher
C/C(=C(\CCOP(=O)(O)O)SC(=O)c1ccco1)N(C=O)Cc1cnc(C)nc1N [Compound 9, (Z)—S-(2-(N-((4-amino-2-methylpyrimidin-5-yl)methyl)formamido)-5-(phosphonooxy)pent-2-en-3-yl) furan-2-carbothioate]						32.1 ± 1.7	35.7 ± 1.4	36.3 ± 1.7		
CCC(CC)C(=O)S/C(CCOP(=O)(O)O)=C(/C)N(C=O)Cc1cnc(C)nc1N [Compound 2, (Z)—S-(2-(N-((4-amino-2-methylpyrimidin-5-yl)methyl)formamido)-5-(phosphonooxy)pent-2-en-3-yl) 2-ethylbutanethioate]	0.9 ± 0.7	173.2 ± 98.7								
